We go through nine compounds from patent US20110105504A1, “Inhibitors Of 11beta-Hydroxysteroid Dehydrogenase Type 1” (Vitae Pharmaceuticals ,Inc., priority 2008, published 2011).

This experiment deals with T1, human 11β-HSD1 (Homo sapiens, UniProt P28845).
T1 construct: expressed in transfected cells; host or cells: CHO cells (microsomes isolated from them)
Nature of the experiment: Inhibition of microsomal preparation of 11β-HSD1 (SPA, [3H]cortisone to [3H]cortisol), Biological Test Example 1. The format is biochemical. The conditions noted are these: microsomes from CHO cells overexpressing human 11β-HSD1; for Average % inhibition at 100 nM / inhibition at 0.1 µM: 100 nM compound; for Average % inhibition at 100 nM: 0.1 µM; for IC50: read-out: IC50 Range. The method, then:
The inhibition of microsomal preparation of 11β-HSD1 by compounds of the invention was measured essentially as previously described (K. Solly, S. S. Mundt, H. J. Zokian, G. J. Ding, A. Hermanowski-Vosatka, B. Strulovici, and W. Zheng, High-Throughput Screening of 11-Beta-Hydroxysteroid Dehydrogenase Type 1 in Scintillation Proximity Assay Format. Assay Drug Dev Technol 3 (2005) 377-384). All reactions were carried out at room temperature in 96 well clear flexible PET Microbeta plates (PerkinElmer). The assay begins by dispensing 49 p. 1 of substrate solution (50 mM HEPES, pH 7.4, 100 mM KCl, 5 mM NaCl, 2 mM MgCl2, 2 mM NADPH and 160 nM [^3H]cortisone (1 Ci/mmol)) and mixing in 1 μL of the test compounds in DMSO previously diluted in half-log increments (8 points) starting at 0.1 mM. After a 10 minute pre-incubation, 50 μL of enzyme solution containing microsomes isolated from CHO cells overexpressing human 11β-HSD1 (10-20 μg/ml of total protein) was added, and the plates were incubated for 90 minutes at room temperature. The reaction was stopped by adding 50 μl of the SPA beads suspension containing 10 μM 18β-glycyrrhetinic acid, 5 mg/ml protein A coated YSi SPA beads (GE Healthcare) and 3.3 μg/ml of anti-cortisol antibody (East Coast Biologics) in Superblock buffer (Bio-Rad). The plates were shaken for 120 minutes at room temperature, and the SPA signal corresponding to [^3H]cortisol was measured on a Microbeta plate reader.

Where only a bound is given, the exact number is not on record here.

T1 sequence (P28845 whole entry): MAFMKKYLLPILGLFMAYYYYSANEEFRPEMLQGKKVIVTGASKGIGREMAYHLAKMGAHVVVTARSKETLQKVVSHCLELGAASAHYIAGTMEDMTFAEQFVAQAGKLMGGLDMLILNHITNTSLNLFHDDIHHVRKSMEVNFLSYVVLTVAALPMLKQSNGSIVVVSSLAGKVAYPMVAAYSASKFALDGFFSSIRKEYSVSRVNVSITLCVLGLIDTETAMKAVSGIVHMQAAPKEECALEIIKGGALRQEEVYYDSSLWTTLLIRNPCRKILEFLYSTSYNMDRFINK

With `C[C@@H](c1ccc(Br)cc1)N1CC(CCCO)(c2ccc(F)cc2)OC1=O` (single isomer, unassigned) [Example 2 Isomer 1], the “Average % inhibition at 100 nM” value is 78.3% and the concentration for half-maximal inhibition (IC50) is less than 100 nM.

Turning to `C[C@@H](c1ccc(Br)cc1)N1CC(CCCO)(c2ccc(F)cc2)OC1=O` (single isomer, unassigned) [Example 2 Isomer 2], the “Average % inhibition at 100 nM” value is 16.9% and the concentration for half-maximal inhibition (IC50) is more than 100 nM.

`C[C@@H](c1ccc(-c2ccc(F)cc2)cc1)N1CC(CCCO)(c2ccc(F)cc2)OC1=O` (single isomer, unassigned) [Example 3 Isomer 1]: the “Average % inhibition at 100 nM” value stood at 91.4% and the IC50 was less than 100 nM.

In the case of `C[C@@H](c1ccc(-c2ccc(F)cc2)cc1)N1CC(CCCO)(c2ccc(F)cc2)OC1=O` (single isomer, unassigned) [Example 3 Isomer 2], the “Average % inhibition at 100 nM” value was 19.1% and the concentration for half-maximal inhibition (IC50) is more than 100 nM.

As to `C[C@@H](c1ccc(-c2ccn(C)c(=O)c2)cc1)N1C[C@](CC(C)(C)O)(c2ccccc2)OC1=O` (single isomer, unassigned) [Example 5 Isomer 1], 0.1 µM produced 51.9% inhibition and the IC50 is less than 100 nM.

On to `C[C@@H](c1ccc(-c2ccn(C)c(=O)c2)cc1)N1C[C@@](CC(C)(C)O)(c2ccccc2)OC1=O` (single isomer, unassigned) [Example 5 Isomer 2], for which the inhibition at 0.1 µM worked out at 3.4% and the 50% inhibitory concentration (IC50) was more than 100 nM.

Regarding `C[C@@H](c1ccc(-c2ccn(C)c(=O)c2)cc1)N1C[C@](CCC(C)(C)O)(c2ccccc2)OC1=O` (single isomer, unassigned) [Example 6 Isomer 1], the inhibition at 0.1 µM was found to be 18.4% and the IC50 is more than 100 nM.

Turning to `C[C@@H](c1ccc(-c2ccn(C)c(=O)c2)cc1)N1C[C@](CCC(C)(C)O)(c2ccccc2)OC1=O` (single isomer, unassigned) [Example 6 Isomer 2], the “Average % inhibition at 100 nM” value is recorded as 19.8% and the half-inhibitory concentration (IC50) is more than 100 nM.

For `Cc1cccc(N2CC(C)(c3ccccc3)OC2=O)c1` (stereo not drawn) [Example 7, 5-Methyl-5-phenyl-3-m-tolyloxazolidin-2-one], the inhibition at 0.1 µM came out at 5.4% and the 50% inhibitory concentration (IC50) was more than 1000 nM.
